How the values were obtained:
[1] = biological target: T1, human B1R receptor (hB1R) (Homo sapiens, UniProt P46663); assay: FLIPR Ca2+ assay on hB1R-transfected CHO K1 cells, antagonistic action; format: cell-based; conditions: CHO-K1, 10 μM test substance; agonist Lys-Des-Arg9-bradykinin 0.5 nM; % of maximum achievable inhibition; read-out: hB1R [10 μM] % inhibition
T1 construct: host or cells: CHO K1 cells
T1 sequence (P46663 1-353): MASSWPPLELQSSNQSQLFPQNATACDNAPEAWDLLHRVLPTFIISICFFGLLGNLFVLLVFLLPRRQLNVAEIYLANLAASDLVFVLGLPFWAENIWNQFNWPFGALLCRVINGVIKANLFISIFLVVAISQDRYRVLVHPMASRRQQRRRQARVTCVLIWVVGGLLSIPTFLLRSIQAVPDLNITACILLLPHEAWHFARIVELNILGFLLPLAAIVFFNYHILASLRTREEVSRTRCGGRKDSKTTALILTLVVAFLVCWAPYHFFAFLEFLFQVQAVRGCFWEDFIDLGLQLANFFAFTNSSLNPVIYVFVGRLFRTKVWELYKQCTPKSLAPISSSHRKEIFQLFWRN

[2] = biological target: T2, B1R receptor of the rat (rB1R) (Rattus norvegicus, UniProt P97583); assay: FLIPR Ca2+ assay on rB1R-transfected CHO K1 cells, antagonistic action; format: cell-based; conditions: CHO-K1, 10 μM test substance; agonist Des-Arg9-bradykinin 100 nM; % of maximum achievable inhibition; read-out: rB1R [10 μM] % inhibition
T2 construct: host or cells: CHO K1 cells
T2 sequence (P97583 1-337): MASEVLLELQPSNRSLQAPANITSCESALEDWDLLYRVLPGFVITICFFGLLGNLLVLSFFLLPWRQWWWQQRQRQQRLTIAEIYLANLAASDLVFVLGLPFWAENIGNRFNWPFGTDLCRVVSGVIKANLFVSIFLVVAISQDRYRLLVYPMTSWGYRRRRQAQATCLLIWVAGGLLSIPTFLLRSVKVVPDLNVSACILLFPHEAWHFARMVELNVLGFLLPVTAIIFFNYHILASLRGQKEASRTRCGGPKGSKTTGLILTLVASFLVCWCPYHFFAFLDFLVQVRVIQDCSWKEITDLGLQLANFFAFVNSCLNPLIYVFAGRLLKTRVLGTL

| SMILES | inhibition at 10 µM [1] | inhibition at 10 µM [2] |
| --- | --- | --- |
| CN1CCN(C2(c3ccccc3)CCN(C(=O)COCC3CCc4ccccc4N3S(=O)(=O)c3ccc(Cl)c(Cl)c3)CC2)CC1 (centres unmarked) [Compound 115, 2-((1-(3,4-dichlorophenylsulfonyl)-1,2,3,4-tetrahydroquinolin-2-yl)methoxy)-1-(4-(4-methylpiperazin-1-yl)-4-phenylpiperidin-1-yl)ethanone] | 71% | 72% |
| CN(CCC1CCC(c2ccccc2)(N2CCCC2)CC1)C(=O)CC1CCCCN1S(=O)(=O)c1cccc(C(F)(F)F)c1 (centres unmarked) [Compound 106, N-methyl-N-(2-(4-phenyl-4-(pyrrolidin-1-yl)cyclohexyl)ethyl)-2-(1-(3-(trifluoromethyl)phenylsulfonyl)piperidin-2-yl)acetamide] | 101% | 79% |
| CN(CCCC1CCC(c2ccccc2)(N2CCCC2)CC1)C(=O)CC1CCCCN1S(=O)(=O)c1cccc(C(F)(F)F)c1 (centres unmarked) [Compound 37, N-methyl-N-(3-(4-phenyl-4-(pyrrolidin-1-yl)cyclohexyl)propyl)-2-(1-(3-(trifluoromethyl)phenylsulfonyl)piperidin-2-yl)acetamide] | 103% | 101% |
| COc1cc(C)c(S(=O)(=O)N2CCCCC2COCC(=O)N(C)CCCC2CCC(c3ccccc3)(N3CCCC3)CC2)c(C)c1 (centres unmarked) [Compound 32, 2-((1-(4-methoxy-2,6-dimethylphenylsulfonyl)piperidin-2-yl)methoxy)-N-methyl-N-(3-(4-phenyl-4-(pyrrolidin-1-yl)cyclohexyl)propyl)acetamide] | 104% | 102% |
| COc1cc(C)c(S(=O)(=O)N(C)CCOCC(=O)N2CCC(c3ccccc3)(N3CCN(c4ccncc4)CC3)CC2)c(C)c1 [Compound 69, 4-methoxy-N,2,6-trimethyl-N-(2-(2-oxo-2-(4-phenyl-4-(4-(pyridin-4-yl)piperazin-1-yl)piperidin-1-yl)ethoxy)ethyl)benzenesulfonamide] | 102% | 99% |
| CN1CCN(C2(Cc3ccccc3)CCC(CN(C)C(=O)COCC3CCCCN3S(=O)(=O)c3c(Cl)cc(Cl)cc3Cl)CC2)CC1 (centres unmarked) [Compound 162, N-((4-benzyl-4-(4-methylpiperazin-1-yl)cyclohexyl)methyl)-N-methyl-2-((1-(2,4,6-trichlorophenylsulfonyl)piperidin-2-yl)methoxy)acetamide] | 102% | 94% |
| CN(CC1CCC(CCc2ccccc2)(N2CCCC2)CC1)C(=O)CC(NS(=O)(=O)c1ccc2ccccc2c1)c1ccccc1 (centres unmarked) [Compound 89, N-methyl-3-(naphthalene-2-sulfonamido)-N-((4-phenethyl-4-(pyrrolidin-1-yl)cyclohexyl)methyl)-3-phenylpropanamide] | 92% | 98% |
| Cc1cc(S(=O)(=O)N2CCCCC2CCC(=O)N(C)CCC2CCC(c3ccccc3)(N(C)C)CC2)c(C)cc1Cl (centres unmarked) [Compound 107, 3-(1-(4-chloro-2,5-dimethylphenylsulfonyl)piperidin-2-yl)-N-(2-(4-(dimethylamino)-4-phenylcyclohexyl)ethyl)-N-methylpropanamide] | 105% | 79% |
| COc1cc(C)c(S(=O)(=O)N(C)CCOCC(=O)N(C)CC2CCC(Cc3ccccc3)(N3CCCC3)CC2)c(C)c1 (centres unmarked) [Compound 45, N-((4-benzyl-4-(pyrrolidin-1-yl)cyclohexyl)methyl)-2-(2-(4-methoxy-N,2,6-trimethylphenylsulfonamido)ethoxy)-N-methylacetamide] | 104% | 100% |
| COc1cc(C)c(S(=O)(=O)N2CCC(OCC(=O)NC3CCC(CCc4ccccc4)(N(C)C)CC3)C2)c(C)c1 (centres unmarked) [Compound 5, N-(4-(dimethylamino)-4-phenethylcyclohexyl)-2-(1-(4-methoxy-2,6-dimethylphenylsulfonyl)pyrrolidin-3-yloxy)acetamide] | 104% | 100% |
| Cc1cc(C)c(S(=O)(=O)N2CCC(OCC(=O)NC3CCC(CCc4ccccc4)(N(C)C)CC3)C2)c(C)c1 (centres unmarked) [Compound 29, N-(4-(dimethylamino)-4-phenethylcyclohexyl)-2-(1-(mesitylsulfonyl)pyrrolidin-3-yloxy)acetamide] | 61% | 46% |
| CN1CCN(C2(c3ccccc3)CCN(C(=O)CC3CCCCN3S(=O)(=O)c3cccc(C(F)(F)F)c3)CC2)CC1 (centres unmarked) [Compound 64, 1-(4-(4-methylpiperazin-1-yl)-4-phenylpiperidin-1-yl)-2-(1-(3-(trifluoromethyl)phenylsulfonyl)piperidin-2-yl)ethanone] | 84% | 100% |
| CN(C)C1(CCc2ccccc2)CCN(C(=O)CC(NS(=O)(=O)c2ccc3ccccc3c2)c2ccccc2)CC1 (centres unmarked) [Compound 105, N-(3-(4-(dimethylamino)-4-phenethylpiperidin-1-yl)-3-oxo-1-phenylpropyl)naphthalene-2-sulfonamide] | 83% | 81% |
| CN(CCC1CCC(Cc2ccccc2)(N(C)C)CC1)C(=O)CC1CCCCN1S(=O)(=O)c1cccc(C(F)(F)F)c1 (centres unmarked) [Compound 95, N-(2-(4-benzyl-4-(dimethylamino)cyclohexyl)ethyl)-N-methyl-2-(1-(3-(trifluoromethyl)phenylsulfonyl)piperidin-2-yl)acetamide] | 99% | 93% |
| COc1ccc(S(=O)(=O)N2CCCCC2CCOCC(=O)NC2CCC(c3ccccc3)(N(C)C)CC2)cc1 (centres unmarked) [Compound 19, N-(4-(dimethylamino)-4-phenylcyclohexyl)-2-(2-(1-(4-methoxyphenylsulfonyl)piperidin-2-yl)ethoxy)acetamide] | 51% | 73% |
| COc1cc(C)c(S(=O)(=O)N2CCCC2COCC(=O)NCC2CCC(c3ccccc3)(N3CCOCC3)CC2)c(C)c1 (centres unmarked) [Compound 152, 2-((1-(4-methoxy-2,6-dimethylphenylsulfonyl)pyrrolidin-2-yl)methoxy)-N-((4-morpholino-4-phenylcyclohexyl)methyl)acetamide] | 84% | 102% |
| Cc1cc(S(=O)(=O)N2CCCCC2CCC(=O)N(C)CCCC2CCC(Cc3ccccc3)(N3CCCC3)CC2)c(C)cc1Cl (centres unmarked) [Compound 124, N-(3-(4-benzyl-4-(pyrrolidin-1-yl)cyclohexyl)propyl)-3-(1-(4-chloro-2,5-dimethylphenylsulfonyl)piperidin-2-yl)-N-methylpropanamide] | 98% | 58% |
| COc1cc(C)c(S(=O)(=O)N2CCCCC2COCC(=O)N(C)CCC2CCC(Cc3ccccc3)(N(C)C)CC2)c(C)c1 (centres unmarked) [Compound 84, N-(2-(4-benzyl-4-(dimethylamino)cyclohexyl)ethyl)-2-((1-(4-methoxy-2,6-dimethylphenylsulfonyl)piperidin-2-yl)methoxy)-N-methylacetamide] | 104% | 99% |
| COc1cc(C)c(S(=O)(=O)N2CCCCC2COCC(=O)N2CCC(c3cccc(F)c3)(N3CCN(C)CC3)CC2)c(C)c1 (centres unmarked) [Compound 211, 1-(4-(3-Fluorophenyl)-4-(4-methylpiperazin-1-yl)piperidin-1-yl)-2-((1-(4-methoxy-2,6-dimethylphenylsulfonyl)piperidin-2-yl)methoxy)ethanone] | 100% | 101% |
